“And” between values parts separate entries of the source, which are not always exact repeats. Equal values may be shown once.
Tested on: L1210
Assay: Tumor cell selectivity determined as maximal percent increase in life span (ILSmax) at LD10 dosage level in L1210 cells
Format: functional, Mus musculus

| Compound | ILSmax |
| --- | --- |
| CCS(=O)(=O)Nc1ccc(Nc2c3cccc(C)c3nc3c(C)cccc23)c(OC)c1 | 70% |
| Cc1c([N+](=O)[O-])ccc2c(Nc3ccc(NS(C)(=O)=O)cc3)c3ccccc3nc12 | 70% |
| COc1ccc2c(Nc3ccc(NS(C)(=O)=O)cc3OC)c3ccc(Cl)cc3nc2c1 | 50% |
| O=C(O)c1ccc(Nc2c3ccccc3nc3ccccc23)cc1 | 90% |
| O=C(Nc1ccc(Nc2c3ccccc3nc3ccccc23)cc1)OCC(O)CO (stereo not given) | 70% |
| Cc1ccc2c(Nc3ccc(NS(C)(=O)=O)cc3)c3ccccc3nc2c1C | 55% |
| CCCCOc1cccc2c(Nc3ccc(NS(C)(=O)=O)cc3OC)c3ccccc3nc12 | 80% |
| CS(=O)(=O)Nc1ccc(N=c2c3ccccc3[nH]c3cc([N+](=O)[O-])ccc23)cn1 | 72% |
| CC(C(N)=O)S(=O)(=O)Nc1ccc(Nc2c3ccccc3nc3ccccc23)cc1 (stereo not given) | 25% |
| CC(=O)Nc1ccc2c(Nc3ccc(NS(C)(=O)=O)cc3)c3ccc([N+](=O)[O-])cc3nc2c1 | 141% |
| COc1cc(Nc2c3ccccc3nc3c([N+](=O)[O-])cccc23)ccc1NS(C)(=O)=O | 25% |
| CCc1ccc2c(Nc3ccc(CC(=O)O)cc3)c3ccccc3nc2c1 | 200% |
| CCCCCCCCS(=O)(=O)Nc1ccc(Nc2c3ccccc3nc3ccccc23)c(OC)c1 | 40% |
| CS(=O)(=O)Nc1ccc(Nc2c3ccccc3nc3c(C(N)=O)cccc23)cc1 | 50% |
| CS(=O)(=O)Nc1ccc(Nc2c3ccccc3nc3c(N)cccc23)cc1 | 100% |
| CS(=O)(=O)Nc1ccc(Nc2c3ccccc3nc3ccccc23)c(N)c1 | 105% |
| NCCCCCc1ccc(NC(=O)Nc2ccc(N=c3c4ccccc4[nH]c4ccccc34)cc2)cc1 | 170% |
| CS(=O)(=O)Nc1ccc(Nc2c3ccccc3nc3cc(O)ccc23)cc1 | 72% |
| NCCCCCCS(=O)(=O)Nc1ccc(Nc2c3ccccc3nc3ccccc23)cc1 | 25% |
| Oc1cccc(Nc2c3ccccc3nc3ccccc23)c1 | 25% |
| CCCCS(=O)(=O)Nc1ccc(Nc2c3ccccc3nc3cc(NC(C)=O)ccc23)cc1 | 83% |
| CS(=O)(=O)Nc1ccc(Nc2c3ccccc3nc3ccccc23)cn1 | 141% |
| CCNc1ccc(Nc2c3ccccc3nc3ccccc23)cc1 | 52% |
| CNc1ccc2c(Nc3ccc(C(=O)O)cc3)c3ccccc3nc2c1 | 25% |
| O=C(O)CCc1cccc(Nc2c3ccccc3nc3ccccc23)c1 | 25% |

| Compound | ILSmax |
| --- | --- |
| COc1cc(NS(C)(=O)=O)ccc1Nc1c2cccc(C)c2nc2c(C)c([N+](=O)[O-])ccc12 | 56% |
| Cc1ccc2nc3ccccc3c(Nc3ccc(NS(C)(=O)=O)cc3)c2c1 | 25% |
| CCOC(=O)N1CCN(C(=O)Nc2ccc(Nc3c4ccccc4nc4ccccc34)cc2)CC1 | 50% |
| Nc1ccc2c(Nc3ccc(NC(=O)c4ccccc4)cc3)c3ccccc3nc2c1 | 115% |
| Nc1ccc(S(=O)(=O)Nc2ccc(Nc3c4ccccc4nc4ccccc34)cc2)cc1 | 100% |
| O=C(O)CCCCCc1ccc(NC(=O)Nc2ccc(Nc3c4ccccc4nc4ccccc34)cc2)cc1 | 60% |
| Nc1ccc2c(Nc3ccc(C(=O)O)cc3)c3ccccc3nc2c1 | 25% |
| CS(=O)(=O)Nc1ccc(Nc2c3cc(N)ccc3nc3ccc(N)cc23)cc1 | 35% |
| CCOc1ccccc1Nc1c2ccccc2nc2ccccc12 | 25% |
| NCc1ccc(Nc2c3ccccc3nc3cc([N+](=O)[O-])ccc23)cc1 | 25% |
| N#CC(C#N)=Cc1ccc(Nc2c3ccccc3nc3ccccc23)cc1 | 65% |
| COc1cc(NS(C)(=O)=O)ccc1Nc1c2cccc(C)c2nc2c(C)c(C)ccc12 | 120% |
| O=[N+]([O-])c1ccc(S(=O)(=O)Nc2ccc(Nc3c4ccccc4nc4cc([N+](=O)[O-])ccc34)cc2)cc1 | 200% |
| CCc1ccc2c(Nc3ccc(NS(C)(=O)=O)cc3OC)c3ccccc3nc2c1 | 123% |
| COc1cc(NS(C)(=O)=O)ccc1Nc1c2ccccc2nc2cc(Br)c(N)cc12 | 99% |
| CCCNc1ccc(Nc2c3ccccc3nc3ccccc23)cc1 | 25% |
| O=C(O)CCCCCc1ccc(Nc2c3ccccc3nc3ccccc23)cc1 | 200% |
| CNc1ccc2c(Nc3ccc(NS(C)(=O)=O)cc3)c3cccc(C)c3nc2c1C | 70% |
| COc1ccc2[nH]c3ccccc3c(=Nc3ccc(NS(C)(=O)=O)cc3OC)c2c1 | 35% |
| CCOc1cc(NS(C)(=O)=O)ccc1Nc1c2ccccc2nc2ccccc12 | 75% |
| O=C(O)c1ccc(S(=O)(=O)Nc2ccc(Nc3c4ccccc4nc4ccccc34)cc2)cc1 | 135% |
| CS(=O)(=O)Nc1ccc(Nc2c3ccccc3nc3cccc([N+](=O)[O-])c23)cc1 | 25% |
| CS(=O)(=O)Nc1ccc(Nc2c3ccccc3nc3ccc(N)cc23)cc1 | 50% |
| COc1cc(NS(C)(=O)=O)ccc1Nc1c2ccccc2nc2c(CCC(N)=O)cccc12 | 105% |
| NCCCCCCc1ccc(N=c2c3ccccc3[nH]c3ccccc23)cc1 | 25% |

| Compound | ILSmax |
| --- | --- |
| COc1ccc2c(Nc3ccc(NS(C)(=O)=O)cc3)c3cccc(C)c3nc2c1 | 75% |
| CN(C)c1ccc(NC(=O)Nc2ccc(Nc3c4ccccc4nc4ccccc34)cc2)cc1 | 170% |
| CS(=O)(=O)Nc1ccc(Nc2c3ccccc3nc3cc(Cl)c(N)cc23)cc1 | 140% |
| CN(C)Cc1ccc(Nc2c3ccccc3nc3ccccc23)cc1 | 25% |
| O=C(O)CCc1ccc(NC(=O)Nc2ccc(N=c3c4ccccc4[nH]c4ccccc34)cc2)cc1 | 125% |
| Cc1cccc2c(Nc3ccc(NS(C)(=O)=O)cc3)c3ccc([N+](=O)[O-])cc3nc12 | 120% and 130% |
| C(=C/c1ccc(Nc2c3ccccc3nc3ccccc23)cc1)/c1ccccc1 | 25% |
| COc1ccc2c(Nc3ccc(NS(C)(=O)=O)cc3)c3ccccc3nc2c1 | 107% |
| N=C(N)NCCCS(=O)(=O)Nc1ccc(Nc2c3ccccc3nc3cc([N+](=O)[O-])ccc23)cc1 | 200% |
| COc1cc(NS(C)(=O)=O)ccc1Nc1c2ccc(Cl)cc2nc2c(C)cccc12 | 75% |
| CC(C)CC(=O)Nc1ccc(Nc2c3ccccc3nc3ccccc23)cc1 | 105% |
| CNc1ccc2c(Nc3ccc(NS(C)(=O)=O)cc3OC)c3ccccc3nc2c1 | 83% |
| COc1cc(NS(C)(=O)=O)ccc1Nc1c2ccccc2nc2cc(C)ccc12 | 168% |
| COc1cc(NS(C)(=O)=O)ccc1Nc1c2ccc(I)cc2nc2c(OC)cccc12 | 100% |
| Cc1ccc(Nc2c3ccccc3nc3ccccc23)cc1 | 90% |
| Cc1cc(N)ccc1N=c1c2ccccc2[nH]c2ccccc12 | 76% |
| CCN(CC)/N=N/c1ccc2c(Nc3ccc(NS(C)(=O)=O)cc3)c3ccccc3nc2c1 | 95% |
| CCCCCS(=O)(=O)Nc1ccc(Nc2c3ccccc3nc3ncccc23)c(OC)c1 | 76% |
| Cc1cccc2c(Nc3ccc(NS(C)(=O)=O)cc3)c3ccc(N)cc3nc12 | 110% |
| CCS(=O)(=O)Nc1ccc(Nc2c3ccccc3nc3cc(C)ccc23)cc1 | 84% |
| CCS(=O)(=O)Nc1ccc(Nc2c3ccccc3nc3c(C)cccc23)cc1 | 65% |
| COc1cc(NS(C)(=O)=O)ccc1Nc1c2ccccc2nc2ccccc12 [AMSACRINE] | 111% |
| O=C(O)Cc1ccccc1Nc1c2ccccc2nc2ccccc12 | 25% |
| CCOc1cccc2c(Nc3ccc(NS(C)(=O)=O)cc3)c3ccccc3nc12 | 85% |
| CNc1ccc2c(Nc3ccc(OCCCC(=O)O)cc3)c3ccccc3nc2c1 | 25% |

| Compound | ILSmax |
| --- | --- |
| CCS(=O)(=O)Nc1ccc(Nc2c3ccccc3nc3c(C)cccc23)c(OC)c1 | 76% |
| O=C(Nc1ccc(N=c2c3ccccc3[nH]c3ccccc23)cc1)Nc1ccc(C(=O)O)cc1 | 85% |
| O=C(Cc1ccccc1)Nc1ccc(Nc2c3ccccc3nc3ccccc23)cc1 | 25% |
| CS(=O)(=O)Nc1ccc(Nc2c3ccccc3nc3cc([N+](=O)[O-])ccc23)cc1 | 69% |
| O=C(O)/C=C\c1ccccc1Nc1c2ccccc2nc2ccccc12 | 25% |
| O=C(O)CCc1ccc(Nc2c3ccccc3nc3ccccc23)cc1 | 162% |
| COc1ccc2nc3cc(Cl)ccc3c(Nc3ccc(NS(C)(=O)=O)cc3OC)c2c1 | 25% |
| COc1cc(NS(C)(=O)=O)ccc1Nc1c2ccccc2nc2c(OCCO)cccc12 | 105% |
| CCCCNc1ccc(Nc2c3ccccc3nc3ccccc23)cc1 | 25% |
| COc1cccc(Nc2c3ccccc3nc3ccccc23)c1 | 25% |
| CNc1ccc2c(Nc3ccc(NS(C)(=O)=O)cc3)c3cccc(C)c3nc2c1 | 170% |
| CCCOc1cccc2c(Nc3ccc(NS(C)(=O)=O)cc3)c3ccccc3nc12 | 100% |
| COc1cc(NS(C)(=O)=O)ccc1Nc1c2ccccc2nc2c(OC)cccc12 | 110% |
| CC(=O)NCCS(=O)(=O)Nc1ccc(Nc2c3ccc(I)cc3nc3ccc(N)cc23)cc1 | 105% |
| COc1cccc2c(Nc3ccc(NS(C)(=O)=O)cc3)c3ccc(N)cc3nc12 | 100% |
| COc1cc(NS(C)(=O)=O)ccc1Nc1c2ccc(C)cc2nc2cc([N+](=O)[O-])ccc12 | 92% |
| CCCCCCS(=O)(=O)Nc1ccc(Nc2c3ccccc3nc3ccccc23)c(OC)c1 | 66% |
| CC(C)(C)c1ccccc1Nc1c2ccccc2nc2ccccc12 | 25% |
| COc1ccc2nc3cc(N)ccc3c(Nc3ccc(NS(C)(=O)=O)cc3)c2c1 | 25% |
| CC(=O)Nc1ccc2c(Nc3ccc(NS(=O)(=O)CCCNC(=N)N)cc3)c3ccc([N+](=O)[O-])cc3nc2c1 | 160% |
| NC(=O)N/N=C/c1ccc(Nc2c3ccccc3nc3ccccc23)cc1 | 72% |
| COc1cc(NS(C)(=O)=O)ccc1Nc1c2ccccc2nc2c(C)c(C)ccc12 | 118% |
| COc1cc(NS(C)(=O)=O)ccc1Nc1c2ccccc2nc2cccc([N+](=O)[O-])c12 | 50% |
| NC(Cc1ccc(NC(=O)Nc2ccc(N=c3c4ccccc4[nH]c4cc([N+](=O)[O-])ccc34)cc2)cc1)C(=O)O (stereo not given) | 80% |
| NCCCCCCc1ccc(N=c2c3ccccc3[nH]c3cc([N+](=O)[O-])ccc23)cc1 | 25% |

Reference: ChEMBL document CHEMBL1122107, “Structure-antitumor activity relationships of 9-anilinoacridines using pattern recognition” (1982)
